Like-named read-outs stand apart in the source and are kept apart here.
Columns and labels:
[1] = target: T1, human α4β2 neuronal nicotinic receptor (Homo sapiens, UniProt P17787+P43681); assay: α4β2 neuronal nicotinic receptor assay (agonist radioligand, [3H]cytisine); format: binding
T1 construct: host or cells: SH-SY5Y cells (membrane homogenates)
Experimental: Cell membrane homogenates (30 μg protein) were incubated for 120 min at 4° C. with 0.6 nM [3H]cytisine in the absence or presence of the test compound in a buffer containing 50 mM Tris-HCl (pH 7.4), 120 mM NaCl, 5 mM KCl, 2.5 mM CaCl2 and 1 mM MgCl2. Nonspecific binding was determined in the presence of 10 μM nicotine bitartrate. Following incubation, the samples were filtered rapidly under vacuum through glass fiber filters (GF/B, Packard) presoaked with 0.3% PEI and rinsed several times with ice-cold 50 mM Tris-HCl using a 96-sample cell harvester (Unifilter, Packard).
The filters were dried then counted for radioactivity in a scintillation counter (Topcount, Packard) using a scintillation cocktail (Microscint 0, Packard). The results were expressed as a percent inhibition of the control radioligand specific binding. The standard reference compound was nicotine bitartrate.
A number of example compounds of formula (I) were tested to evaluate their affinity for the human α4β2 neuronal nicotinic receptor expressed in transfected SH-SY5Y cells, determined in a radioligand binding assay.

[2] = target: T2, MTHFD2 recombinant human enzyme (Homo sapiens, UniProt P13995); assay: MTHFD2 inhibition assay (NAD(P)H-Glo luminescence); conditions: for MTHFD1/MTHFD2 IC50 ratio: selectivity of MTHFD2 inhibition over MTHFD1, band
T2 sequence (P13995 36-350): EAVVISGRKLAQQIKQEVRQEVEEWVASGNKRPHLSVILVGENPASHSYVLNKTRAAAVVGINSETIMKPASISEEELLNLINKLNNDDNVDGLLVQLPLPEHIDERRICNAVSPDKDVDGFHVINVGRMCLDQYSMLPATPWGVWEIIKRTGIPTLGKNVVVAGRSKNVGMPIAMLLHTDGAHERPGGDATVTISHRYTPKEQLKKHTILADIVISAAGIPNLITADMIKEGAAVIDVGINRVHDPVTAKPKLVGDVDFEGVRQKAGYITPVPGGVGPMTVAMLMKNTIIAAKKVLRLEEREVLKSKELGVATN

[3] = target: T3, MTHFD1 recombinant human enzyme (Homo sapiens, UniProt P11586); assay: MTHFD1 inhibition assay (NAD(P)H-Glo luminescence)
T3 sequence (P11586 2-291 limits assumed): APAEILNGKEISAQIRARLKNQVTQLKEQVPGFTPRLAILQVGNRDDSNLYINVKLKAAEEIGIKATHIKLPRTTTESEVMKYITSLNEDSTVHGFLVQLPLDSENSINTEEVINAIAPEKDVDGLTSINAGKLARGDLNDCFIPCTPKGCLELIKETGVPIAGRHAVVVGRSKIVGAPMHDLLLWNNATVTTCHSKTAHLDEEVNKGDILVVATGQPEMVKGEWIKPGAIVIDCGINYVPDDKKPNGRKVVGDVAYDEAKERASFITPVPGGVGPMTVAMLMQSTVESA

human CD4+ T cells = assay: Human CD4+ T-cell proliferation assay (CFSE, CD3/28 beads); conditions: read-out: Proliferation IC50
Experimental: Cells were incubated at room temperature for 8 minutes in a rotator in the dark. 13 mL cRPMI was added to each tube and cells were centrifuged at 500×g for 4 minutes at room temperature before pellets were resuspended in 10 mL cRPMI. Cells were counted using the Auto2000 Cellometer and AO/PI viability stain and concentration adjusted to 0.6×10^6 cells/mL in cRPMI. […] Control wells were included for flow cytometry and edge wells were filled with 200 μL 1×dPBS. Cells were incubated at 37° C., 5% CO2 for 2 days before compound treatment. […] Cells were incubated at 37° C., 5% CO2 for a further 2 days prior to flow staining and supernatant harvest.
On the final day plates were centrifuged at 500×g for 4 minutes at room temperature. 125 μL of supernatants were transferred to a V bottom 96 well polystyrene plate and stored at −80° C. Plates were gently vortexed to disrupt the cell pellets before 125 μL 1×PBS was added to each well. Plates were centrifuged at 500×g for 4 minutes at room temperature and supernatants removed from the plates by aspirating. Plates were gently vortexed and 30 μL of live/dead stain (Invitrogen, L34975) in 1×dPBS was added and incubated for 15 minutes in the dark at 4° C. […] 100 μL of flow cytometry buffer was added and plates were centrifuged at 500×g for 4 minutes before supernatants were aspirated from the plates. Wells were resuspended in 200 μL flow cytometry buffer and plates stored at 4° C. before being run on the flow cytometer.
Data was analysed using FlowJo and the compensation matrix applied to all samples. The gates were set using unstained and unstimulated samples.

[4] = transfected SH-SY5Y cell membranes, 0.6 nM [3H]cytisine, band
[5] = MTHFD1 IC50, recombinant human enzyme 200 nM, NADP, band

T1 sequence (P43681 29-627 limits assumed): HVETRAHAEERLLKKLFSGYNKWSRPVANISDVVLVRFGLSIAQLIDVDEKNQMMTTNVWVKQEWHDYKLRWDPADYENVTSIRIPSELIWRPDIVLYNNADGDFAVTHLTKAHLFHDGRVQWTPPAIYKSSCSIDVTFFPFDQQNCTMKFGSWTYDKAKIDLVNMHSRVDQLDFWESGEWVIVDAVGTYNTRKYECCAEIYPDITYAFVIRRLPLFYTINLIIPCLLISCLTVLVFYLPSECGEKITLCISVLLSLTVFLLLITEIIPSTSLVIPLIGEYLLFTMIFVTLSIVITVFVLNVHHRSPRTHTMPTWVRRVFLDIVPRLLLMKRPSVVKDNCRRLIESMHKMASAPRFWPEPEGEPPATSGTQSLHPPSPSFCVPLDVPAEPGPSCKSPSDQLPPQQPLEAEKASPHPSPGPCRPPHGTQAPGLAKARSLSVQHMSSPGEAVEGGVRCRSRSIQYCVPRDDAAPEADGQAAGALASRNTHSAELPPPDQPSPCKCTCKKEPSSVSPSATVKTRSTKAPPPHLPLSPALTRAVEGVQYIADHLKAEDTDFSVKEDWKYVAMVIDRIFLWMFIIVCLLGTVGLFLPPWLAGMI
T1 sequence (P17787 26-502): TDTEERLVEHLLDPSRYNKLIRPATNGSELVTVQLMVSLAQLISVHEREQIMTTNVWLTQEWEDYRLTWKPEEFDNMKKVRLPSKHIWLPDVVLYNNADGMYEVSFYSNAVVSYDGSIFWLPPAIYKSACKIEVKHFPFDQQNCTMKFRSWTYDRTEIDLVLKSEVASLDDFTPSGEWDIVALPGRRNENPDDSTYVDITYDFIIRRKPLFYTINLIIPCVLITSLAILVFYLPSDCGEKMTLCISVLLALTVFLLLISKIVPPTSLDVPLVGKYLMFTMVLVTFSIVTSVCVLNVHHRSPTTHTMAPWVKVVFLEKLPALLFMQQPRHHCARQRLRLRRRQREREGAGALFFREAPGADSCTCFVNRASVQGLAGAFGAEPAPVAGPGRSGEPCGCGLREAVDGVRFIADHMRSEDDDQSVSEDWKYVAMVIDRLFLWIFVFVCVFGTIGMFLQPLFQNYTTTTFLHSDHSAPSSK

## COC[C@H]1CN(c2cc(C)c3c4c(c(=O)oc3c2C)CN(C(=O)c2ccc(C(=O)NS(=O)(=O)N3CC5CC5C3)c(OC)c2F)CC4)CCN1C (stereo partly drawn) [Example 156, N-((3-azabicyclo[3.1.0]hexan-3-yl)sulfonyl)-3-fluoro-2-methoxy-4-(8-((R)-3-(methoxymethyl)-4-methylpiperazin-1-yl)-7,10-dimethyl-5-oxo-1,3,4,5-tetrahydro-2H-chromeno[3,4-c]pyridine-3-carbonyl)benzamide]
[1]; [4]
  IC50: 20000 to 100000 nM
[2]
  IC50: 10 to 100 nM
[3]; [5]
  IC50: 100 to 1000 nM
Human CD4+ T cells
  IC50: 30 to 100 nM

## COC[C@H]1CN(c2cc(C)c3c4c(c(=O)oc3c2C)CN(C(=O)c2ccc(C(=O)NS(=O)(=O)C3(C)CC3)c(OC3CCC3)c2)CC4)CCN1C [Example 2, (R)-2-cyclobutoxy-4-(8-(3-(methoxymethyl)-4-methylpiperazin-1-yl)-7,10-dimethyl-5-oxo-1,3,4,5-tetrahydro-2H-chromeno[3,4-c]pyridine-3-carbonyl)-N-((1-methylcyclopropyl)sulfonyl)benzamide]
[1]; [4]
  IC50: 20000 to 100000 nM
[2]
  IC50: 10 to 100 nM
  MTHFD1/MTHFD2 IC50 ratio: G (^ 3 to 9.0)
[3]; [5]
  IC50: 100 to 1000 nM

## COC[C@H]1CN(c2cc(C)c3c4c(c(=O)oc3c2C)CN(C(=O)c2ccc(C(=O)NS(=O)(=O)N(C)C(C)C)c(OC3CCCC3)c2F)CC4)CCN1C [Example 24, (R)-2-(cyclopentyloxy)-3-fluoro-N-(N-isopropyl-N-methylsulfamoyl)-4-(8-(3-(methoxymethyl)-4-methylpiperazin-1-yl)-7,10-dimethyl-5-oxo-1,3,4,5-tetrahydro-2H-chromeno[3,4-c]pyridine-3-carbonyl)benzamide]
[1]; [4]
  IC50: 20000 to 100000 nM
[2]
  IC50: 1 to 10 nM
  MTHFD1/MTHFD2 IC50 ratio: F (<3)
[3]; [5]
  IC50: 1 to 10 nM

## COC[C@H]1CN(c2ccc3c4c(c(=O)oc3c2C)CN(C(=O)c2ccc(C(=O)NS(=O)(=O)N3CCCC3)c(OC3CCCC3)c2F)CC4)CCN1C [Example 12, (R)-2-(cyclopentyloxy)-3-fluoro-4-(8-(3-(methoxymethyl)-4-methylpiperazin-1-yl)-7-methyl-5-oxo-1,3,4,5-tetrahydro-2H-chromeno[3,4-c]pyridine-3-carbonyl)-N-(pyrrolidin-1-ylsulfonyl)benzamide]
[1]; [4]
  IC50: > 100000 nM
[2]
  IC50: 1 to 10 nM
  MTHFD1/MTHFD2 IC50 ratio: F (<3)
[3]; [5]
  IC50: 1 to 10 nM

## COC[C@H]1CN(c2ccc3c4c(c(=O)oc3c2C)CN(C(=O)c2ccc(C(=O)NS(=O)(=O)N(C)C)c(N3CCCC3)c2)CC4)CCN1C [Example 18, (R)-N-(N,N-dimethylsulfamoyl)-4-(8-(3-(methoxymethyl)-4-methylpiperazin-1-yl)-7-methyl-5-oxo-1,3,4,5-tetrahydro-2H-chromeno[3,4-c]pyridine-3-carbonyl)-2-(pyrrolidin-1-yl)benzamide]
[1]; [4]
  IC50: > 100000 nM
[2]
  IC50: 1 to 10 nM
  MTHFD1/MTHFD2 IC50 ratio: G (^ 3 to 9.0)
[3]; [5]
  IC50: 10 to 100 nM

## COC[C@H]1CN(c2cc(C)c3c4c(c(=O)oc3c2C)CN(C(=O)c2ccc(C(=O)NS(=O)(=O)N(C)C)c(N3CCCC3)c2)CC4)CCN1C [Example 20, (R)-N-(N,N-dimethylsulfamoyl)-4-(8-(3-(methoxymethyl)-4-methylpiperazin-1-yl)-7,10-dimethyl-5-oxo-1,3,4,5-tetrahydro-2H-chromeno[3,4-c]pyridine-3-carbonyl)-2-(pyrrolidin-1-yl)benzamide]
[1]; [4]
  IC50: 2000 to 20000 nM
[2]
  IC50: 1 to 10 nM
  MTHFD1/MTHFD2 IC50 ratio: G (^ 3 to 9.0)
[3]; [5]
  IC50: 1 to 10 nM

## COC[C@H]1CN(c2cc(C)c3c4c(c(=O)oc3c2C)CN(C(=O)c2ccc(C(=O)NS(=O)(=O)N(C)C(C)C)c(OC3CCC3)c2F)CC4)CCN1C [Example 25, (R)-2-cyclobutoxy-3-fluoro-N-(N-isopropyl-N-methylsulfamoyl)-4-(8-(3-(methoxymethyl)-4-methylpiperazin-1-yl)-7,10-dimethyl-5-oxo-1,3,4,5-tetrahydro-2H-chromeno[3,4-c]pyridine-3-carbonyl)benzamide]
[1]; [4]
  IC50: 20000 to 100000 nM
[2]
  IC50: 1 to 10 nM
  MTHFD1/MTHFD2 IC50 ratio: F (<3)
[3]; [5]
  IC50: 1 to 10 nM

## Cc1c(N2CCN(C)[C@@H](C)C2)ccc2c3c(c(=O)oc12)CN(C(=O)c1ccc(NS(C)(=O)=O)c(OC(F)(F)F)c1)CC3 [Reference Example 1, reference compound]
[1]
  IC50: < 2000 nM
[1]; [4]
  IC50: < 2000 nM
[2]; MTHFD2 IC50, recombinant human enzyme 40 nM, NAD+, band
  IC50: 10 to 100 nM
[2]; MTHFD2 IC50, specific value, average of multiple repeats
  IC50: 45 nM
[3]; [5]
  IC50: 100 to 1000 nM
[3]; MTHFD1 IC50, specific value, average of multiple repeats
  IC50: 410 nM

## COC[C@H]1CN(c2cc(C)c3c4c(c(=O)oc3c2C)CN(C(=O)c2ccc(C(=O)NS(=O)(=O)C3(C)CC3)c(N3CCCC3)c2)CC4)CCN1C [Example 45, (R)-4-(8-(3-(methoxymethyl)-4-methylpiperazin-1-yl)-7,10-dimethyl-5-oxo-1,3,4,5-tetrahydro-2H-chromeno[3,4-c]pyridine-3-carbonyl)-N-((1-methylcyclopropyl)sulfonyl)-2-(pyrrolidin-1-yl)benzamide]
[1]; [4]
  IC50: 20000 to 100000 nM
[2]
  IC50: 1 to 10 nM
  MTHFD1/MTHFD2 IC50 ratio: H (>9.0 to 30)
[3]; [5]
  IC50: 10 to 100 nM

## COC[C@H]1CN(c2cc(C)c3c4c(c(=O)oc3c2C)CN(C(=O)c2ccc(C(=O)NS(=O)(=O)N3C5CCC3CC5)c(OC)c2)CC4)CCN1C [Example 226, (R)-N-((7-azabicyclo[2.2.1]heptan-7-yl)sulfonyl)-2-methoxy-4-(8-(3-(methoxymethyl)-4-methylpiperazin-1-yl)-7,10-dimethyl-5-oxo-1,3,4,5-tetrahydro-2H-chromeno[3,4-c]pyridine-3-carbonyl)benzamide]
[2]
  IC50: 10 to 100 nM
  MTHFD1/MTHFD2 IC50 ratio: J (>30)
[3]; [5]
  IC50: 100 to 1000 nM
Human CD4+ T cells
  IC50: 30 to 100 nM

## COC[C@H]1CN(c2cc(C)c3c4c(c(=O)oc3c2C)CN(C(=O)c2cc(N(C)C)c(C(=O)NS(=O)(=O)N3CC5CC5C3)cc2F)CC4)CCN1C (stereo partly drawn) [Example 315, N-((3-azabicyclo[3.1.0]hexan-3-yl)sulfonyl)-2-(dimethylamino)-5-fluoro-4-(8-((R)-3-(methoxymethyl)-4-methylpiperazin-1-yl)-7,10-dimethyl-5-oxo-1,3,4,5-tetrahydro-2H-chromeno[3,4-c]pyridine-3-carbonyl)benzamide]
[2]
  IC50: 1 to 10 nM
  MTHFD1/MTHFD2 IC50 ratio: J (>30)
[3]; [5]
  IC50: 100 to 1000 nM
Human CD4+ T cells
  IC50: 1 to 10 nM

## COC[C@H]1CN(c2cc(Cl)c3c4c(c(=O)oc3c2C)CN(C(=O)c2cc(F)c(C(=O)NS(=O)(=O)N3CCCC3)cc2OC)CC4)CCN1C [Example 319, (R)-4-(10-chloro-8-(3-(methoxymethyl)-4-methylpiperazin-1-yl)-7-methyl-5-oxo-1,3,4,5-tetrahydro-2H-chromeno[3,4-c]pyridine-3-carbonyl)-2-fluoro-5-methoxy-N-(pyrrolidin-1-ylsulfonyl)benzamide]
[2]
  IC50: 10 to 100 nM
  MTHFD1/MTHFD2 IC50 ratio: J (>30)
[3]; [5]
  IC50: 1000 to 5000 nM
Human CD4+ T cells
  IC50: 100 to 1000 nM

## COC[C@H]1CN(c2cc(C)c3c4c(c(=O)oc3c2C)CN(C(=O)c2cc(N(C)C)c(C(=O)NS(=O)(=O)N3C5CCC3CC5)cc2Cl)CC4)CCN1C [Example 193, (R)-N-((7-azabicyclo[2.2.1]heptan-7-yl)sulfonyl)-5-chloro-2-(dimethylamino)-4-(8-(3-(methoxymethyl)-4-methylpiperazin-1-yl)-7,10-dimethyl-5-oxo-1,3,4,5-tetrahydro-2H-chromeno[3,4-c]pyridine-3-carbonyl)benzamide]
[2]
  IC50: 10 to 100 nM
  MTHFD1/MTHFD2 IC50 ratio: J (>30)
[3]; [5]
  IC50: 1000 to 5000 nM
Human CD4+ T cells
  IC50: 30 to 100 nM
